Experimental data: PubChem BioAssay (NCI)
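Tested at 5 concentrations; 48 h exposure; 96-well plates; endpoints linearly interpolated, else capped at highest concentration. GI50 is the concentration that inhibits growth by half. TGI: concentration producing complete growth inhibition.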

Experiments:
Assay in all cases: inhibition of tumour cell growth, NCI panel, 48 h
TK-10 renal = test system: TK-10 renal
U251 CNS = test system: U251 CNS
HL-60(TB) leukemia = test system: HL-60(TB) leukemia
NCI-H226 lung = test system: NCI-H226 lung
OVCAR-8 ovarian = test system: OVCAR-8 ovarian
KM12 colon = test system: KM12 colon
EKVX NSCLC = test system: EKVX NSCLC
M14 melanoma = test system: M14 melanoma
MOLT-4 leukemia = test system: MOLT-4 leukemia
HCT-15 colon = test system: HCT-15 colon

Row | SMILES | TGI (TK-10 renal) | TGI (U251 CNS) | TGI (HL-60(TB) leukemia) | TGI (NCI-H226 lung) | TGI (OVCAR-8 ovarian) | TGI (KM12 colon) | TGI (EKVX NSCLC) | TGI (M14 melanoma) | TGI (MOLT-4 leukemia) | TGI (HCT-15 colon) | GI50 (TK-10 renal) | GI50 (U251 CNS) | GI50 (HL-60(TB) leukemia) | GI50 (NCI-H226 lung) | GI50 (OVCAR-8 ovarian) | GI50 (HCT-15 colon) | GI50 (KM12 colon) | GI50 (EKVX NSCLC) | GI50 (M14 melanoma) | GI50 (MOLT-4 leukemia)
1 | c1ccc(C2CC(c3ccc4ccccc4c3)=Nc3ccccc3S2)cc1 (centres undefined) | 37.8 µM | 31 µM | 55.9 µM | 42.7 µM | 29.9 µM | 38.8 µM | 50.7 µM | 31.2 µM | > 100 µM | – | – | – | – | – | – | – | – | – | – | –
2 | CC(=O)OC1C(O[C@H]2CC[C@]34O[C@]35CC[C@]3(C)C(C6(C)CC[C@@H](C(C)(C)O)O6)[C@@H](O)CC3(C)[C@@H]5CC(OC3OC(CO)C(O)C(O)C3O)C4C2(C)C)OCC(O)C1O (some centres undefined) | > 100 µM | > 100 µM | > 53.3 µM | > 100 µM | > 100 µM | > 100 µM | > 100 µM | > 100 µM | > 100 µM | > 57.8 µM | – | – | – | – | – | – | – | – | – | –
3 | NC(CSC(c1ccccc1)(c1ccccc1)c1ccc(F)cc1)C(=O)O (centres undefined) | > 100 µM | > 60.5 µM | 2.47 µM | > 76.3 µM | 41.7 µM | 20.7 µM | > 74.2 µM | > 100 µM | > 46.9 µM | > 100 µM | 13.3 µM | 0.374 µM | 0.268 µM | 5.64 µM | 0.493 µM | 0.511 µM | 0.405 µM | 0.525 µM | 0.402 µM | 1.37 µM
4 | COc1cc2c3c(c1OC)C(=O)C=C3N(S(=O)(=O)c1ccc(C)cc1)CC2 | > 100 µM | > 100 µM | > 100 µM | > 100 µM | > 100 µM | > 100 µM | > 100 µM | > 100 µM | > 100 µM | > 100 µM | – | – | – | – | – | – | – | – | – | –
5 | C/C(CC(=O)Nc1ccc(NC(=O)C/C(C)=N\NC(N)=O)cc1)=N/NC(N)=O | > 100 µM | > 100 µM | > 100 µM | > 100 µM | > 100 µM | > 100 µM | > 100 µM | > 100 µM | 97.8 µM | > 62.5 µM | – | – | – | – | – | – | – | – | – | –
6 | C=C(CO)CC(/C=C(\C)CC/C=C(\C)CCl)OC(C)=O (centres undefined) | > 100 µM | > 100 µM | > 100 µM | > 100 µM | > 100 µM | > 100 µM | > 100 µM | > 100 µM | > 100 µM | > 100 µM | – | – | – | – | – | – | – | – | – | –
7 | COc1ccc(-c2nn3ncccc3c2-c2ccnc(Nc3ccc4c(c3)OCCO4)n2)cc1 | 18.5 µM | > 25 µM | > 25 µM | > 25 µM | > 25 µM | > 25 µM | > 25 µM | > 25 µM | > 25 µM | > 25 µM | 4.54 µM | 14.3 µM | 12.9 µM | 5.51 µM | 7.3 µM | 6.89 µM | 5.99 µM | 9.61 µM | 8.55 µM | 14.2 µM
8 | CCCCCCCCCCOC(=O)c1cc[n+](C)cc1 | 31.8 µM | 29.1 µM | 35.4 µM | 32.7 µM | 31.4 µM | 31.3 µM | 30.5 µM | 32.2 µM | 37.5 µM | 29.5 µM | – | – | – | – | – | – | – | – | – | –
9 | O=C(N/C(=C/c1cccc([N+](=O)[O-])c1)c1nc2ccc(Cl)cc2[nH]1)c1ccccc1 | 62.1 µM | 25.4 µM | 20.2 µM | > 100 µM | 30.6 µM | 31.1 µM | 25.3 µM | > 100 µM | 49 µM | > 100 µM | – | – | – | – | – | – | – | – | – | –
